# Laboratory results: patent US20090062342A1, “AMINES” (Actelion Pharmaceuticals Ltd., priority 2006, published 2009)
# Target: T1, recombinant human renin (Homo sapiens, UniProt P00797)
# T1 sequence (P00797 67-406): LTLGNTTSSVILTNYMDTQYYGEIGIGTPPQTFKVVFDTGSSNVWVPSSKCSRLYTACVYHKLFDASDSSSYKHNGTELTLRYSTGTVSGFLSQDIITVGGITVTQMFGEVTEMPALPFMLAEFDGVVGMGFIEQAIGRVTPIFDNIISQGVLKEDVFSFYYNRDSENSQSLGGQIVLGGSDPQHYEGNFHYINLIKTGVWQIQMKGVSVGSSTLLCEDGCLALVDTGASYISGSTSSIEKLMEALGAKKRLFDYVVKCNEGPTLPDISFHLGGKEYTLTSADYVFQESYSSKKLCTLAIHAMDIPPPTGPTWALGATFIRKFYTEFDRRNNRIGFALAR
# Assay: Primary renin inhibition assay: IC50 in buffer, 384 well MTP (AngI quantified by EIA)
# Method: Enzyme Immuno Assay (EIA) to Estimate AngI Accumulation and Renin Inhibition
# The mixture was incubated overnight at 4° C., then dialyzed against 2 liters of 0.9% NaCl, twice for 4 h at rt, followed by dialysis against 2 liters of PBS 1× overnight at rt. […] The conjugate can be stored in polypropylene tubes in 0.05% sodium azide at 4° C. for at least 12 months.
# The AngI (1-10)/BSA coated MTP were washed 3 times with wash buffer (PBS 1×, 0.01% Tween 20) and filled with 75 μl of primary antibody solution (anti-AngI antiserum, pre-diluted 1:10 in horse serum), diluted to a final concentration of 1:100'000 in assay buffer (PBS 1×, 1 mM EDTA, 0.1% BSA, pH 7.4). 5 μl of the renin reaction (or standards in assay buffer) (see below) were added to the primary antibody solution and the plates were incubated overnight at 4° C. […]
# In the second step, the accumulated AngI is measured by an immunological assay (enzyme immuno assay, EIA). […]
# Test compounds were dissolved and diluted in 100% DMSO and 2.5 μl added to the premix, then incubated at 37° C. for 3 h. At the end of the incubation period, 5 μl of the renin reaction (or standards in assay buffer) were transferred into EIA assays (as described above) and AngI produced by renin was quantified.
compound,measurement,value
"COCCCc1cc(CN(C(=O)[C@H]2CNCC[C@]2(O)c2ccc(OCCOc3c(Cl)cc(C)cc3Cl)nc2)C2CC2)c(Cl)c[n+]1[O-] [Example 7, (3′S,4′R)-6-[2-(2,6-Dichloro-4-methyl-phenoxy)-ethoxy]-4′-hydroxy-1′,2′,3′,4′,5′,6′-hexahydro-[3,4′]bipyridinyl-3′-carboxylic acid [5-chloro-2-(3-methoxy-propyl)-1-oxy-pyridin-4-ylmethyl]-cyclopropyl-amide]",IC50,0.23 nM
